Assay results reported in US11040038B2, “Methods for treating diseases associated with abnormal ACVR1 expression and ACVR1 inhibitors for use in the same” (Sumitomo Dainippon Pharma Oncology, Inc., priority 2018, dated 2021).
Read-outs that look alike come from different tables or passages of the source.

Experiment: Pharmacokinetics and relative bioavailability after a single oral dose (two liquid formulations, powder in capsule)
Assay type: in vivo, male Beagle dogs
Details: for Cmax / AUC(0-inf) / Tmax / half-life / AUC(0-t) / CL/F / Vd/F: male, Beagle, dog, plasma, po; for AUC(0-t): read-out: AUC0-TLast; for CL/F: read-out: CL/F (converted); for Vd/F: read-out: Vz/F
From the text: The purpose of the study is to dose two suspension formulations of Compound 2 at two dose levels by gavage to Beagle dogs and to collect blood samples for the determination of plasma concentrations, derivation of pharmacokinetic parameters and to determine the relative bioavailability of the two suspension formulations. The pharmacokinetics of Compound 2 would be evaluated following oral administration in capsules and the relative bioavailability of this dosage form to the oral liquid formulations was determined.
This study involves the dosing of the test item by the oral route over three periods separated by a 7 days washout period as outlined in Table 43, Table 44, and Table 45. The third period of the study outlined in Table 45 is considered to be optional and will only be performed at the Sponsor's request. Prior to the day of dosing, food will be removed from the dogs at 4:00 pm and reintroduced 2 hrs after dosing.
For oral administration of the formulations, the test item was administered via a stomach tube followed by the administration of 10 mL of tap water. For oral administration of capsules, the capsule was placed on the back of the tongue to encourage swallowing followed by administration of 10 mL of tap water. The oral cavity was then be inspected to make sure the capsule was swallowed. The actual volume of dosing formulation administered will be calculated based on the animal's most recently scheduled body weight.
The pharmacokinetic parameters for Compound 2 in solution as Formulation #1 (Table 43) and Formulation #2 (Table 44) along with data for the dosing of Compound 2 powder in capsule (Table 45) are presented in Table 46.

[1] = 2 mg/kg, Formulation #1 (Table 43), 2 mg/kg oral, male Beagle dogs, Mean
[2] = 2 mg/kg, Formulation #1 (Table 43), 2 mg/kg oral, male Beagle dogs, individual dog
[3] = 2 mg/kg, Formulation #2 (Table 44), 2 mg/kg oral, male Beagle dogs, Mean
[4] = 2 mg/kg, Formulation #2 (Table 44), 2 mg/kg oral, male Beagle dogs, individual dog
[5] = 2 mg/kg, Powder in Capsule (Table 45), 2 mg/kg oral, male Beagle dogs, Mean
[6] = 2 mg/kg, Powder in Capsule (Table 45), 2 mg/kg oral, male Beagle dogs, individual dog
[7] = 5 mg/kg, Formulation #1 (Table 43), 5 mg/kg oral, male Beagle dogs, Mean
[8] = 5 mg/kg, Formulation #1 (Table 43), 5 mg/kg oral, male Beagle dogs, individual dog
[9] = 5 mg/kg, Formulation #2 (Table 44), 5 mg/kg oral, male Beagle dogs, Mean
[10] = 5 mg/kg, Formulation #2 (Table 44), 5 mg/kg oral, male Beagle dogs, individual dog
[11] = 5 mg/kg, Powder in Capsule (Table 45), 5 mg/kg oral, male Beagle dogs, Mean
[12] = 5 mg/kg, Powder in Capsule (Table 45), 5 mg/kg oral, male Beagle dogs, individual dog

With COc1cc(Nc2nccc(Nc3cccnc3-c3ccccn3)n2)ccc1N1CCN(C)CC1 [Compound 2, N^4-(2,2′-bipyridin-3-yl)-N^2-(3-methoxy-4-(4-methylpiperazin-1-yl)phenyl)pyrimidine-2,4-diamine] as the compound, how does the “time of appearance in the plasma post dosing” value (beagle dogs, oral, all formulations) read?
Its value is ≤ 0.5 h.

What about the Cmax (2 mg/kg, 2 mg/kg oral, range across Formulation #1, #2 and powder in capsules, read-out: mean Cmax) of the same compound?
The Cmax was 6.78 to 14.9 ng/mL.

And the AUC(0-inf) [1]?
The AUC(0-inf) was 74 ng·h/mL.

What about the Tmax [1] of the same compound?
Its Tmax is 4.7 h.

And the half-life [1]?
The half-life was 336 min.

What about the AUC(0-inf) [2] of the same compound?
Its AUC(0-inf) is 49 ng·h/mL.

What about the Tmax [2] of the same compound?
The Tmax was 5 h.

What about the half-life [2] of the same compound?
The half-life was 360 min.

What about the AUC(0-t) [1] of the same compound?
The AUC(0-t) was 70 ng·h/mL.

What about the CL/F [1] of the same compound?
Its CL/F is 483 mL/min/kg.

And the Cmax (2 mg/kg, Formulation #1 (Table 43), 2 mg/kg oral, male Beagle dogs, Mean, read-out: Cmax)?
The Cmax was 6.78 ng/mL.

And the Vd/F [1]?
Its Vd/F is 237 L/kg.

And the AUC(0-t) [2]?
The AUC(0-t) was 45 ng·h/mL.

What about the CL/F [2] of the same compound?
Its CL/F is 683 mL/min/kg.

What about the Cmax (2 mg/kg, Formulation #1 (Table 43), 2 mg/kg oral, male Beagle dogs, individual dog, read-out: Cmax) of the same compound?
Its Cmax is 4.37 ng/mL.

What about the AUC(0-inf) [3] of the same compound?
The AUC(0-inf) was 105 ng·h/mL.

What about the Tmax [3] of the same compound?
The Tmax was 4.7 h.

What about the half-life [3] of the same compound?
Its half-life is 282 min.

What about the Tmax [4] of the same compound?
Its Tmax is 4 h.

And the half-life [4]?
Its half-life is 234 min.

What about the AUC(0-t) [3] of the same compound?
Its AUC(0-t) is 102 ng·h/mL.

And the CL/F [3]?
Its CL/F is 400 mL/min/kg.

What about the Cmax (2 mg/kg, Formulation #2 (Table 44), 2 mg/kg oral, male Beagle dogs, Mean, read-out: Cmax) of the same compound?
The Cmax was 11.6 ng/mL.

And the Vd/F [3]?
Its Vd/F is 177 L/kg.

And the AUC(0-inf) [5]?
Its AUC(0-inf) is 90 ng·h/mL.

And the Tmax [5]?
The Tmax was 3 h.

What about the half-life [5] of the same compound?
Its half-life is 138 min.

What about the Tmax [6] of the same compound?
Its Tmax is 3 h.

What about the half-life [6] of the same compound?
The half-life was 144 min.

What about the AUC(0-t) [5] of the same compound?
The AUC(0-t) was 71 ng·h/mL.

What about the CL/F [5] of the same compound?
Its CL/F is 417 mL/min/kg.

What about the Cmax (2 mg/kg, Powder in Capsule (Table 45), 2 mg/kg oral, male Beagle dogs, Mean, read-out: Cmax) of the same compound?
Its Cmax is 14.9 ng/mL.

And the Vd/F [5]?
The Vd/F was 85 L/kg.

What about the Cmax (5 mg/kg, 5 mg/kg oral, range across Formulation #1, #2 and powder in capsules, read-out: mean Cmax) of the same compound?
Its Cmax is 22.2 to 27.8 ng/mL.

And the AUC(0-inf) [7]?
Its AUC(0-inf) is 294 ng·h/mL.

What about the Tmax [7] of the same compound?
Its Tmax is 3.7 h.

What about the half-life [7] of the same compound?
The half-life was 306 min.

What about the Tmax [8] of the same compound?
The Tmax was 4 h.

And the half-life [8]?
The half-life was 360 min.

What about the AUC(0-t) [7] of the same compound?
Its AUC(0-t) is 280 ng·h/mL.

And the CL/F [7]?
Its CL/F is 333 mL/min/kg.

What about the Cmax (5 mg/kg, Formulation #1 (Table 43), 5 mg/kg oral, male Beagle dogs, Mean, read-out: Cmax) of the same compound?
The Cmax was 27.8 ng/mL.

And the Vd/F [7]?
The Vd/F was 147 L/kg.

And the AUC(0-inf) [9]?
The AUC(0-inf) was 221 ng·h/mL.

And the Tmax [9]?
Its Tmax is 3.7 h.

And the half-life [9]?
Its half-life is 294 min.

And the Tmax [10]?
The Tmax was 3 h.

And the half-life [10]?
The half-life was 324 min.

What about the AUC(0-t) [9] of the same compound?
Its AUC(0-t) is 211 ng·h/mL.

What about the CL/F [9] of the same compound?
The CL/F was 450 mL/min/kg.

And the Cmax (5 mg/kg, Formulation #2 (Table 44), 5 mg/kg oral, male Beagle dogs, Mean, read-out: Cmax)?
The Cmax was 22.2 ng/mL.

What about the Vd/F [9] of the same compound?
Its Vd/F is 188 L/kg.

And the AUC(0-inf) [11]?
Its AUC(0-inf) is 160 ng·h/mL.

And the Tmax [11]?
The Tmax was 4.3 h.

What about the half-life [11] of the same compound?
The half-life was 186 min.

And the AUC(0-inf) [12]?
Its AUC(0-inf) is 215 ng·h/mL.

And the Tmax [12]?
The Tmax was 3 h.

And the half-life [12]?
The half-life was 162 min.

And the AUC(0-t) [11]?
The AUC(0-t) was 146 ng·h/mL.

What about the CL/F [11] of the same compound?
Its CL/F is 550 mL/min/kg.

And the Cmax (5 mg/kg, Powder in Capsule (Table 45), 5 mg/kg oral, male Beagle dogs, Mean, read-out: Cmax)?
The Cmax was 25.6 ng/mL.

And the Vd/F [11]?
Its Vd/F is 147 L/kg.

And the AUC(0-t) [12]?
Its AUC(0-t) is 191 ng·h/mL.

And the CL/F [12]?
The CL/F was 383 mL/min/kg.

What about the Tmax (5 mg/kg, beagle dogs, range across formulations at both doses (2 and 5 mg/kg)) of the same compound?
The Tmax was 3 to 4.7 h.
